Results reported in ChEMBL document CHEMBL1151055, “A comparative SAR and computer modeling study of benzisothiazolone, mechanism-based inhibitors with porcine pancreatic and human leukocyte elastase” (Bioorg Med Chem Lett, 1996).

Legend:
[1] = biological target: T1, Neutrophil elastase (Homo sapiens) (UniProt P08246); experiment: Irreversible inhibitory activity against human leukocyte elastase
T1 sequence (whole entry): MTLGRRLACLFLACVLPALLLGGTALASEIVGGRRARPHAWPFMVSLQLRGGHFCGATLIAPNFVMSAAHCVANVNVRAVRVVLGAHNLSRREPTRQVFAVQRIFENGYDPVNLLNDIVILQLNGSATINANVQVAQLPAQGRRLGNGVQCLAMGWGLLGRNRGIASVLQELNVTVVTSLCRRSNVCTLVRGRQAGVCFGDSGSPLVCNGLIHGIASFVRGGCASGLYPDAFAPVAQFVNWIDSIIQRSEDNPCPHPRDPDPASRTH

[2] = biological target: T2, Chymotrypsin-like elastase family member 2A (Sus scrofa) (UniProt P08419); experiment: Irreversible inhibitory activity against porcine pancreatic elastase
T2 sequence (whole entry): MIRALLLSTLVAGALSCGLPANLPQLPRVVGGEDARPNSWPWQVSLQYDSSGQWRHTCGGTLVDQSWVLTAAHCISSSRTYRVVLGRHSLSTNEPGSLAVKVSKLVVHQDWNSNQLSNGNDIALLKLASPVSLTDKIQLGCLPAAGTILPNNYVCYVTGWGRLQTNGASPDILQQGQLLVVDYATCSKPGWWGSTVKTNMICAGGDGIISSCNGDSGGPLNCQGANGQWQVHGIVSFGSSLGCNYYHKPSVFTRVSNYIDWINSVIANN

- k on [1]: 3150 M⁻¹ s⁻¹
- k on [2]: 830 M⁻¹ s⁻¹
SMILES: COC(=O)CCC(=O)N[C@@H](C)C(=O)N[C@@H](C)C(=O)N1CCC[C@@H]1C(=O)N[C@H](C(=O)CCl)C(C)C
